Patent publication US20080153849A1, “Process for the Preparation of Crystalline (6Rrs)-N(5)-Formyl-5,6,7,8-Tetrahydrofolic Acid” (priority 2004, published 2008)

Assay: Storage stability of the solid in a refrigerator (HPLC assay and purity)
Format: physicochemical
Conditions: for Assay (HPLC) / Purity (HPLC): solid stored at 2° C. to 8° C.
Method: This solid was stored at a temperature from 2° C. to 8° C. in a refrigerator. Thereby the following stability dates were obtained for this solid: […]

Assay (HPLC) (time 0 months) | Purity (HPLC) (time 0 months) | Assay (HPLC) (time 3 months) | Purity (HPLC) (time 3 months) | Assay (HPLC) (time 6 months) | Purity (HPLC) (time 6 months) | Assay (HPLC) (time 9 months) | Purity (HPLC) (time 9 months) | Assay (HPLC) (time 12 months) | Purity (HPLC) (time 12 months) | Assay (HPLC) (time 1 month) | Purity (HPLC) (time 1 month) | Assay (HPLC) (time 2 months) | Purity (HPLC) (time 2 months) | Compound | Stability of the solid compared with crystalline (6RS)-folinic acid (general statement in words)
99.4% | 99.78% | 99.0% | 99.79% | 99.1% | 99.75% | 100.2% | 99.82% | 99.9% | 99.79%. |  |  |  |  | Nc1nc2c(c(=O)[nH]1)N(C=O)C(CNc1ccc(C(=O)N[C@@H](CCC(=O)O)C(=O)O)cc1)CN2 (mixture of isomers) [Example 1, (6RS)-N(5)-formyl-5,6,7,8-tetrahydrofolic acid] | 
99.0% | 99.2% | 98.9% | 98.9% | 98.1% | 98.4% |  |  | 97.8% | 97.2%. | 98.5% | 99.0% | 98.1% | 98.9% | Nc1nc2c(c(=O)[nH]1)N(C=O)[C@@H](CNc1ccc(C(=O)N[C@@H](CCC(=O)O)C(=O)O)cc1)CN2 [Example 2, (6S)-N(5)-formyl-5,6,7,8-tetrahydrofolic acid] | stability comparable with the crystalline (6RS)-folinic acid
